From patent US10010539B2, “Pyrazole, triazole and tetrazole orexin receptor antagonists” (MERCK SHARP & DOHME CORP., priority 2014, dated 2018)

Legend:
human orexin-2 receptor = human orexin-2 receptor (Homo sapiens (Human), UniProt O43614); test: FLIPR Ca2+ Flux Assay, orexin-2 receptor (hOX2R FLIPR); type: cell-based; settings: CHO cells expressing the human orexin-2 receptor; agonist 70 pM Ala-6,12 human orexin-A
In short: (§1)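 IC50 from inhibition of the FLIPR calcium peak evoked by 70 pM Ala-6,12 orexin-A, relative to buffer-only control. Cells: CHO with rat OX1R or human OX2R, Fluo-4AM loaded. Compound added 5 min before agonist; fluorescence read every 1 s for 5 min.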

[1] = molecular target: hOXIR (orexin-1 receptor) (Homo sapiens, UniProt O43613); test: FLIPR Ca2+ Flux Assay, orexin-1 receptor (hOXIR FLIPR); type: cell-based; settings: CHO cells expressing the orexin-1 receptor (method text: rat; table head: hOXIR); agonist 70 pM Ala-6,12 human orexin-A
In short: as §1

Sequence of human orexin-2 receptor (O43614 whole entry): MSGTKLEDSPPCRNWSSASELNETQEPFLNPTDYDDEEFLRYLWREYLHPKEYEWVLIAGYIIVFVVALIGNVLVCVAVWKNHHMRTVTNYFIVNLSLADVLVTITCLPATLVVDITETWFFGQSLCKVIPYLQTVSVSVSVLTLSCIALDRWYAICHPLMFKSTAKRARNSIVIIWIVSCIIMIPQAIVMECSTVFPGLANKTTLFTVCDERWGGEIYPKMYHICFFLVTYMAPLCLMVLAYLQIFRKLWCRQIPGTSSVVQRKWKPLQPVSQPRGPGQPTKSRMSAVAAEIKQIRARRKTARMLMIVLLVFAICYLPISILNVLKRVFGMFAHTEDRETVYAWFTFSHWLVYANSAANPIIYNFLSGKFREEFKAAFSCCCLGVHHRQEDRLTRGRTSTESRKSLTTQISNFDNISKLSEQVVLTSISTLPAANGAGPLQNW

Row | Structure (SMILES) | IC50 (human orexin-2 receptor) [nM] | IC50 [1] [nM]
1 | C[C@@H]1CC[C@@H](n2cc(C(C)(C)O)cn2)CN1C(=O)c1nccnc1-n1cccn1 [Example 95, 2-{1-[(3R,6R)-6-Methyl-1-{[3-(1H-pyrazol-1-yl)pyrazin-2-yl]carbonyl}piperidin-3-yl]-1H-pyrazol-4-yl}propan-2-ol] | 271 | > 10000
2 | CCCc1ncccc1C(=O)N1C[C@H](n2ncc(C(C)(C)O)n2)CC[C@H]1C [Example 3, ((2R,5R)-5-(4-(2-Hydroxypropan-2-yl)-2H-1,2,3-triazol-2-yl)-2-methylpiperidin-1-yl)(2-propylpyridin-3-yl)methanone] | 1060 | > 10000
3 | C[C@@H]1CC[C@@H](n2cc([C@](C)(O)C(F)(F)F)cn2)CN1C(=O)c1ccccc1-n1nccn1 [Example 106, (2S)-1,1,1-Trifluoro-2-{1-[(3R,6R)-6-methyl-1-{[2-(2H-1,2,3-triazol-2-yl)phenyl]carbonyl}piperidin-3-yl]-1H-pyrazol-4-yl}propan-2-ol] | 10.6 | 2060
4 | Cc1noc(-c2ccc(F)cc2C(=O)N2C[C@H](n3ncc(C(C)(C)O)n3)CC[C@H]2C)n1 [Example 35, 2-{2-[(3R,6R)-1-{[5-fluoro-2-(3-methyl-1,2,4-oxadiazol-5-yl)phenyl]carbonyl}-6-methylpiperidin-3-yl]-2H-1,2,3-triazol-4-yl}propan-2-ol] | 593 | > 10000
5 | COC(=O)c1ccccc1C(=O)N1C[C@H](n2ncc(C(C)(C)O)n2)CC[C@H]1C [Example 20, Methyl 2-((2R,5R)-5-(4-(2-hydroxypropan-2-yl)-2H-1,2,3-triazol-2-yl)-2-methylpiperidine-1-carbonyl)benzoate] | 24.6 | > 10000
6 | C[C@@H]1CC[C@@H](n2cc(C(C)(C)O)cn2)CN1C(=O)c1ccccc1C1CC1 [Example 78, 2-(1-{(3R,6R)-1-[(2-Cyclopropylphenyl)carbonyl]-6-methylpiperidin-3-yl}-1H-pyrazol-4-yl)propan-2-ol] | 25.5 | > 10000
7 | Cc1nc(-c2ccccc2C(=O)N2C[C@H](n3ncc(C(C)(C)O)n3)CC[C@H]2C)no1 [Example 47, 2-{2-[(3R,6R)-6-methyl-1-{[2-(5-methyl-1,2,4-oxadiazol-3-yl)phenyl]carbonyl}piperidin-3-yl]-2H-1,2,3-triazol-4-yl}propan-2-ol] | 45.7 | > 10000
8 | Cc1nn([C@@H]2CC[C@@H](C)N(C(=O)c3ccccc3OC(F)F)C2)nc1C(C)(C)O [Example 66, 2-{2-[(3R,6R)-1-{[2-(Difluoromethoxy)phenyl]carbonyl}-6-methylpiperidin-3-yl]-5-methyl-2H-1,2,3-triazol-4-yl}propan-2-ol] | 9.6 | 3060
9 | CCOc1ccccc1C(=O)N1C[C@H](n2nc(C)c(C(C)(C)O)n2)CC[C@H]1C [Example 69, 2-(2-{(3R,6R)-1-[(2-Ethoxyphenyl)carbonyl]-6-methylpiperidin-3-yl}-5-methyl-2H-1,2,3-triazol-4-yl)propan-2-ol] | 7.9 | 1950
10 | C[C@@H]1CC[C@@H](n2cc(C(C)(C)O)cn2)CN1C(=O)c1ccccc1OCC(F)(F)F [Example 80, 2-{1-[(3R,6R)-6-Methy-1-{[2-(2,2,2-trifluoroethoxy)phenyl]carbonyl}piperidin-3-yl]-1H-pyrazol-4-yl}propan-2-ol] | 165 | > 10000
11 | C[C@@H]1CC[C@@H](n2ncc(C(C)(C)O)n2)CN1C(=O)c1ncccc1-n1nccn1 [Example 58, 2-{2-[(3R,6R)-6-Methyl-1-{[3-(2H-1,2,3-triazol-2-yl)pyridin-2-yl]carbonyl}piperidin-3-yl]-2H-1,2,3-triazol-4-yl}propan-2-ol] | 44.9 | > 10000
12 | C[C@@H]1CC[C@@H](n2cc(C(C)(C)O)cn2)CN1C(=O)c1ccccc1-n1nccn1 [Example 75, 2-{1-[(3R,6R)-6-Methyl-1-{[2-(2H-1,2,3-triazol-2-yl)phenyl]carbonyl}piperidin-3-yl]-1H-pyrazol-4-yl}propan-2-ol] | 21.6 | > 10000
13 | C[C@@H]1CC[C@@H](n2cc(C(C)(C)O)cn2)CN1C(=O)c1nccnc1-n1nccn1 [Example 101, 2-{1-[(3R,6R)-6-Methyl-1-{[3-(2H-1,2,3-triazol-2-yl)pyrazin-2-yl]carbonyl}piperidin-3-yl]-1H-pyrazol-4-yl}propan-2-ol] | 479 | > 10000
14 | C[C@@H]1CC[C@@H](n2cc(C(C)(C)O)cn2)CN1C(=O)c1ccccc1OCC(F)F [Example 79, 2-{1-[(3R,6R)-1-{[2-(2,2-Difluoroethoxy)phenyl]carbonyl}-6-methylpiperidin-3-yl]-1H-pyrazol-4-yl}propan-2-ol] | 127 | > 10000
15 | C[C@@H]1CC[C@@H](n2ncc(C(C)(C)O)n2)CN1C(=O)c1sccc1-n1nccn1 [Example 32, 2-{2-[(3R,6R)-6-methyl-1-{[3-(2H-1,2,3-triazol-2-yl)thiophen-2-yl]carbonyl}piperidin-3-yl]-2H-1,2,3-triazol-4-yl}propan-2-ol] | 89.6 | > 10000
16 | COC(=O)c1ncccc1C(=O)N1C[C@H](n2ncc(C(C)(C)O)n2)CC[C@H]1C [Example 8, Methyl 3-((2R,5R)-5-(4-(2-hy-droxypropan-2-yl)-2H-1,2,3-triazol-2-yl)-2-methylpiperidine-1-carbonyl)picolinate] | 1780 | > 10000
17 | C[C@@H]1CC[C@@H](n2ncc(C(C)(C)O)n2)CN1C(=O)c1cccc(Oc2ccccc2)c1 [Example 50, 2-(2-{(3R,6R)-6-methyl-1-[(3-phenoxyphenyl)carbonyl]piperidin-3-yl}-2H-1,2,3-triazol-4-yl)propan-2-ol] | 126 | > 10000
18 | C[C@@H]1CC[C@@H](n2cc(C(C)(C)O)cn2)CN1C(=O)c1ccc(F)cc1-n1nccn1 [Example 91, 2-{1-[(3R,6R)-1-{[4-Fluoro-2-(2H-1,2,3-triazol-2-yl)phenyl]carbonyl}-6-methylpiperidin-3-yl]-1H-pyrazol-4-yl}propan-2-ol] | 18.8 | > 10000
19 | CC(C)Oc1ncccc1C(=O)N1C[C@H](n2cc(C(C)(C)O)cn2)CC[C@H]1C [Example 97, 2-{1-[(3R,6R)-6-Methyl-1-{[2-(1-methylethoxy)pyridin-3-yl]carbonyl}piperidin-3-yl]-1H-pyrazol-4-yl}propan-2-ol] | 240 | > 10000
20 | Cc1nn([C@@H]2CC[C@@H](C)N(C(=O)c3cccnc3OCC(F)(F)F)C2)nc1C(C)(C)O [Example 68, 2-{5-mMethyl-2-[(3R,6R)-6-methyl-1-{[2-(2,2,2-trifluoroethoxy)pyridin-3-yl]carbonyl}piperidin-3-yl]-2H-1,2,3-triazol-4-yl}propan-2-ol] | 6.9 | 1520
21 | CC(O)c1cnn([C@@H]2CC[C@@H](C)N(C(=O)c3cccnc3OCC(F)F)C2)n1 (stereo partly drawn) [Example 61, 1-{2-[(3R,6R)-1-{[2-(2,2-Difluoroethoxy)pyridin-3-yl]carbonyl}-6-methylpiperidin-3-yl]-2H-1,2,3-triazol-4-yl}ethanol] | 681 | > 10000
22 | Cc1noc(-c2ccccc2C(=O)N2C[C@H](n3ncc(C(C)(C)O)n3)CC[C@H]2C)n1 [Example 36, 2-{2-[(3R,6R)-6-methyl-1-{[2-(3-methyl-1,2,4-oxadiazol-5-yl)phenyl]carbonyl}piperidin-3-yl]-2H-1,2,3-triazol-4-yl}propan-2-ol] | 62.9 | > 10000
